According to PubChem BioAssay (NCI):
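Here, GI50 denotes the concentration required for 50% inhibition of growth. The concentration for full growth arrest is given as TGI.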

What was measured:
Assay in all cases: NCI tumour cell line growth inhibition, 384-well format
[1] = tested on: A549 NSCLC
[2] = tested on: BT-549 breast
[3] = tested on: HT29 colon
[4] = tested on: K-562 leukemia
[5] = tested on: M14 melanoma
[6] = tested on: MDA-MB-231 breast
[7] = tested on: OVCAR-3 ovarian
[8] = tested on: PC-3 prostate
[9] = tested on: SK-MEL-2 melanoma
[10] = tested on: SK-MEL-5 melanoma
[11] = tested on: U251 glioblastoma
[12] = tested on: UACC-62 melanoma
[13] = tested on: UO-31 renal

Cn1cc(CNCC2CCN(c3ncc(C(=O)NO)cn3)CC2)c2ccccc21
GI50 [1]: 11.9 nM | TGI [1]: 32.1 nM | GI50 [2]: 21.6 nM | TGI [2]: 75.8 nM | GI50 [3]: 10 nM | TGI [3]: 21.6 nM | GI50 [4]: < 10.5 nM | TGI [4]: 22.6 nM | GI50 [5]: < 10 nM | TGI [5]: 105 nM | GI50 [6]: 14.3 nM | TGI [6]: 37.2 nM | GI50 [7]: 12.2 nM | TGI [7]: 28.6 nM | GI50 [8]: < 12.3 nM | TGI [8]: 46.2 nM | GI50 [9]: < 10 nM | TGI [9]: 10.6 nM | GI50 [10]: < 10 nM | TGI [10]: < 10 nM | GI50 [11]: 11.3 nM | TGI [11]: 24.1 nM | GI50 [12]: < 10 nM | TGI [12]: 14.9 nM | GI50 [13]: 27.3 nM | TGI [13]: 123 nM
